Values after ≈ are worked out from the molar mass of the structure shown.
Key:
[1] = system: Klebsiella pneumoniae CDC 0044; test: MIC and MBC against Meropenem-resistant Klebsiella; format: cell-based; settings: Meropenem-resistant strain, before combination
biofilm = test: Biofilm eradication by cell-penetrating peptide alone; format: cell-based; settings: CPP alone, spot plated on LB agar
From the text: FIG. 20: Cell-penetrating peptide alone cannot eradicate the biofilm; the entire entity of AuNCs was required for biofilm eradication. […] Each spot represents an independent experiment (n=3).

[2] = system: P. aeruginosa wild-type PA01 biofilm; test: MBEC Assay biofilm eradication, 48 h old PA01 biofilm; format: cell-based, Pseudomonas aeruginosa; settings: 24 h treatment
Procedure: (§1) (1-2) Bacteria culture is prepared and dispensed into a 96-well microplate. (3) The peg lid is placed in the bacteria culture and incubated to generate the biofilm. (4) The peg lid is gently rinsed to removed planktonic bacteria and a serial diluted test solution is dispensed into a new 96-well microplate. (5) The pegs covered in biofilm are incubated in the test solutions. (6) The peg lid is again gently rinsed to remove planktonic bacteria and placed in a new 96-well microplate containing recovery media. The peg lid is then sonicated to dislodge the biofilm into the recovery media. (7) Following sonication, the peg lid is replaced with a regular 96-well microplate lid and the plate containing recovery media is incubated. Following incubation, the OD650 absorbance is read on a spectrophotometer. Wells with an OD650 of less than 0.1 is evidence of biofilm eradication. (8) Spot plated on LB agar plates is use to confirm biofilm eradication.
(§2) Then, the minimum biofilm eradication concentration (MBEC) of FLOXIN®Otic against 48 h old PA01 and PA CSOM biofilms were determined using the commercially available MBEC Assay® (Innovotech Inc. Edmonton, Canada). […] Although PA CSOM produced quantitatively less biofilms than PAO1, it had the highest tolerance to ofloxacin. […]

[3] = system: P. aeruginosa clinical otopathogenic strain (PA CSOM) biofilm; test: MBEC Assay biofilm eradication, 48 h old PA CSOM biofilm; format: cell-based, Pseudomonas aeruginosa; settings: 24 h treatment
Procedure: as §1, §2

PA01 = test: Minimum inhibitory concentration against PA01; format: cell-based; settings: Pseudomonas aeruginosa
PA CSOM = test: Minimum inhibitory concentration against PA CSOM; format: cell-based; settings: Pseudomonas aeruginosa
[4] = system: PA CSOM surviving persister cells, logarithmic-phase culture; test: Ofloxacin sensitivity of resuscitated persister cells in logarithmic-phase culture; format: cell-based, Pseudomonas aeruginosa; settings: ofloxacin 100 μg/mL, 24 h
Procedure: FIG. 8: Cartoon depicting the flowchart to evaluate ofloxacin sensitivity to persister cells resuscitation in logarithmic-phase culture. (1) Surviving persister cells following the treatment of PA CSOM biofilm with ofloxacin at 3000 μg/mL were replaced in fresh media and incubated at 37° C. and were aerated at 225 r.p.m. (2) Cells in logarithmic-phase (OD600=0.3) were treated with either phosphate-buffered saline (PBS) or ofloxacin (100 μg/mL) for 24 h. (3) following the treatment, cells were plated to determine the number of bacteria per milliliter (CFU/mL).
The drug-refractory state associated with PA CSOM biofilm formation is mediated by tolerance rather than resistance to the antibiotic.

PA01 logarithmic culture = test: Persistence assay, PA01; format: cell-based, Pseudomonas aeruginosa; settings: ofloxacin 100 μg/mL, 24 h
Procedure: (§3) FIGS. 2A-2B: Increasing the fraction of persister cells promotes biofilm tolerance to ofloxacin. FIG. 2A) Susceptibility of surviving persister cells in logarithmic-phase culture. […] Data are presented as mean±s.d. (n=3). FIG. 2B) Comparison of persister cell fraction between PAO1 and PA CSOM in logarithmic-phase culture. Cells of logarithmic-phase were treated with ofloxacin ([…]) for 24 h and then plated for colony counting. The persister fraction was calculated as the ratio between the number of surviving bacteria after ofloxacin treatment compared to that measured in the corresponding untreated control (PBS). Data are presented as mean±s.d. (n=3). Statistical comparisons were done using a two-tailed t-test as indicated. ****p≤0.0001 and **p≤0.01.
(§4) PA01 and PA CSOM cultures were incubated at 37° C. with shaking. 1 mL of culture from each strain was aliquoted when reaching an OD600 of 0.3. Cultures were gently rinsed to remove LB medium and replaced with 1 mL of PBS. Ofloxacin (100 μg/mL) was added to the culture flasks (except for the control flasks). After 24 h incubation, ofloxacin was removed and the number of colony-forming units per milliliter (CFU/mL) was determined. […] The fraction of persister cells was calculated as the ratio of the CFU/mL after ofloxacin treatment to the CFU/mL of the control flasks.

[5] = system: PA CSOM logarithmic culture; test: Persistence assay, PA CSOM; format: cell-based, Pseudomonas aeruginosa; settings: ofloxacin 100 μg/mL, 24 h
Procedure: as §3, §4

[6] = system: PA01 (chromosomally encoded luminescent) biofilm; format: cell-based, Pseudomonas aeruginosa; settings: 10-day-old PA01 biofilm, 24 hr treatment
Procedure: Biofilms of PA01 (10-day-old) were grown in the commercially available Calgary Biofilm Device (a 96-well plate)/minimum biofilm eradication concentration (MBEC) assay plate (46). […] Wells were washed with PBS and biofilms were disrupted with sonication and incubated in recovery media for turbidity measurements. A well was considered to have biofilm eradicated if the optical density at 650 nm (OD650) was less than 0.1 after 24 hours.

[7] = system: stationary phase planktonic PA; test: Killing of stationary phase planktonic PA; format: cell-based, Pseudomonas aeruginosa; settings: 24 hr treatment, AuNC@CPP (16000 μg/mL), OFL (750 μg/mL)

C[C@@H](O)[C@H]1C(=O)N2C(C(=O)O)=C(S[C@@H]3CN[C@H](C(=O)N(C)C)C3)[C@H](C)[C@H]12 [Meropenem]
MBC [1]: > 200 µg/mL

Ac-(YGRKKRRQRRR SEQ ID NO:7)-(β-Ala)-(β-Ala)-(β-Ala)-Cys-CONH2 (N-acetyl, three beta-Ala, Cys amide; TAT cell-penetrating peptide) [CPP, cell-penetrating peptide alone, component of AuNC@CPP]
concentration without any biofilm eradication (biofilm): > 4000 µg/mL

CC1COc2c(N3CCN(C)CC3)c(F)cc3c(=O)c(C(=O)O)cn1c23 (centres unmarked) [ofloxacin]
minimum biofilm eradication concentration (MBEC) [2]: 750 µg/mL
minimum biofilm eradication concentration (MBEC) [3]: > 3000 µg/mL
MIC (PA01): 1.6 to 3.3 µg/mL (≈ 4.43 to 9.13 µM)
MIC (PA CSOM): 52.5 to 100 µg/mL (≈ 145 to 277 µM)
decrease in number of bacteria per milliliter (CFU/mL) [4]: 3 log 10
fraction of persister cells of total bacteria population (PA01 logarithmic culture): 0.0005%
fraction of persister cells [5]: 0.07%
MBEC [6]: 750 µg/mL
remaining CFU [7]: 10^3
